# Results reported in patent US7419981B2, “Synergistic combinations of an alpha-2-delta ligand and a cGMP phosphodieterse 5 inhibitor” (Pfizer Inc., priority 2002, dated 2008).
# Where a name gives a salt, the structure may show the parent alone.
# Columns and labels:
# [1] = system: CCI-induced static allodynia; test: CCI-induced static allodynia, paw withdrawal threshold to von Frey hairs; format: in vivo, rat; details: for time of peak antiallodynic actions: post administration, CCI-induced static model; for blockade of static allodynia: alone; for minimum effective dose (MED), blockade of maintenance of static allodynia: administered alone, gabapentin p.o., sildenafil s.c.
# Experimental: Male Sprague Dawley rats (200-250 g), obtained from Charles River, (Margate, Kent, U.K.) were housed in groups of 6. All animals were kept under a 12 h light/dark cycle (lights on at 07 h 00 min) with food and water ad libitum. All experiments were carried out by an observer unaware of drug treatments.
# Animals were anaesthetised with isoflurane. The sciatic nerve was ligated as previously described by Bennett and Xie, 1988. Animals were placed on a homeothermic blanket for the duration of the procedure. After surgical preparation the common sciatic nerve was exposed at the middle of the thigh by blunt dissection through biceps femoris. Proximal to the sciatic trifurcation, about 7 mm of nerve was freed of adhering tissue and 4 ligatures (4-0 silk) were tied loosely around it with about 1 mm spacing. The incision was closed in layers and the wound treated with topical antibiotics.
# Dose-responses to gabapentin and sildenafil were first performed alone in the CCI model. Combinations were examined following a fixed ratio design. A dose-response to each fixed dose ratio of the combination was performed. On each test day, baseline paw withdrawal thresholds (PWT) to von Frey hairs and paw withdrawal latencies (PWL) to a cotton bud stimulus were determined prior to drug treatment. Gabapentin was administered p.o. directly followed by s.c. administration of sildenafil and PWT and PWL re-examined for up to 5 h. The data are expressed at the 2 h time point for both the static and dynamic data as this timepoint represent the peak antiallodynic effects.
# Static allodynia was measured using Semmes-Weinstein von Frey hairs (Stoelting, Illinois, U.S.A.). Animals were placed into wire mesh bottom cages allowing access to the underside of their paws. Animals were habituated to this environment prior to the start of the experiment. Static allodynia was tested by touching the plantar surface of the animals right hind paw with von Frey hairs in ascending order of force (0.7, 1.2, 1.5, 2, 3.6, 5.5, 8.5, 11.8, 15.1 and 29 g) for up to 6 sec. Once a withdrawal response was established, the paw was re-tested, starting with the next descending von Frey hair until no response occurred. The highest force of 29 g lifted the paw as well as eliciting a response, thus represented the cut off point. The lowest amount of force required to elicit a response was recorded as the PWT in grams.
# [2] = system: CCI-induced dynamic allodynia; test: CCI-induced dynamic allodynia, paw withdrawal latency to cotton bud stimulus; format: in vivo, rat; details: for blockade of dynamic allodynia: alone; for minimum effective dose (MED), blockade of maintenance of dynamic allodynia: administered alone, gabapentin p.o., sildenafil s.c.; for time of peak antiallodynic actions: post administration, CCI-induced dynamic model
# Experimental: Male Sprague Dawley rats (200-250 g), obtained from Charles River, (Margate, Kent, U.K.) were housed in groups of 6. All animals were kept under a 12 h light/dark cycle (lights on at 07 h 00 min) with food and water ad libitum. All experiments were carried out by an observer unaware of drug treatments. Animals were anaesthetised with isoflurane. The sciatic nerve was ligated as previously described by Bennett and Xie, 1988. Animals were placed on a homeothermic blanket for the duration of the procedure. After surgical preparation the common sciatic nerve was exposed at the middle of the thigh by blunt dissection through biceps femoris. Proximal to the sciatic trifurcation, about 7 mm of nerve was freed of adhering tissue and 4 ligatures (4-0 silk) were tied loosely around it with about 1 mm spacing. The incision was closed in layers and the wound treated with topical antibiotics. […] Combinations were examined following a fixed ratio design. A dose-response to each fixed dose ratio of the combination was performed. On each test day, baseline paw withdrawal thresholds (PWT) to von Frey hairs and paw withdrawal latencies (PWL) to a cotton bud stimulus were determined prior to drug treatment. […] Dynamic allodynia was assessed by lightly stroking the plantar surface of the hind paw with a cotton bud. Care was taken to perform this procedure in fully habituated rats that were not active to avoid recording general motor activity. At least three measurements were taken at each time point the mean of which represented the paw withdrawal latency (PWL). […] Thus 15 s effectively represents no withdrawal. A withdrawal response was often accompanied with repeated flinching or licking of the paw. Dynamic allodynia was considered to be present if animals responded to the cotton stimulus before 8 s of stroking.
# [3] = system: CCI-induced static allodynia; test: CCI-induced static allodynia, paw withdrawal threshold to von Frey hairs; format: in vivo, rat; details: Table 1; ratio 1:0, pregabalin 30 mg/kg alone
compound,measurement,setting,value
CCC[C@@H](C)C[C@H](N)CC(=O)O.Cl,melting point,,142.5 to 142.7 °C
CCCC(C)(C)CC(CN)C(=O)O.Cl (centres unmarked),melting point,,229.5 to 231 °C
CCCC[C@@H](C)C[C@H](N)CC(=O)O (as salt: hydrochloride),melting point,,142.5 to 143.3 °C
CCC[C@@H](C)C[C@H](CN)C(=O)O (as salt: hydrochloride),melting point,,226.3 to 228 °C
CCCC(C)(C)C[C@H](N)CC(=O)O (as salt: hydrochloride) (hydrate or solvate),melting point,,194.2 to 195.2 °C
"CCCOc1ccc(S(=O)(=O)N2CCN(CC)CC2)cc1-c1nc2c(CC)n(Cc3ccccn3)nc2c(=O)[nH]1 [Compound AA, 3-Ethyl-5-[5-(4-ethyl-piperazine-1-sulfonyl)-2-propoxy-phenyl]-2-pyridin-2-ylmethyl-2,6-dihydro-pyrazolo[4,3-d]pyrimidin-7-one]",% reversal of allodynia,"[1]; Table 2, ratio 0:1, 30 mg/kg alone (dose column headed Sildenafil)",50%
same,time of peak antiallodynic actions,[1],2 h
"NCC1(CC(=O)O)CCCCC1 [Gabapentin, 1-(aminomethyl)-cyclohexylacetic acid]",blockade of dynamic allodynia,[2]; 100 mg/kg p.o.,complete blockade
same,"minimum effective dose (MED), blockade of maintenance of dynamic allodynia",[2],10 mg/kg
same,time of peak antiallodynic actions,[2],2 h
same,blockade of static allodynia,[1]; 100 mg/kg p.o.,complete blockade
same,% reversal of allodynia,"[1]; Table 2, ratio 1:0, gabapentin 100 mg/kg alone",100%
same,"minimum effective dose (MED), blockade of maintenance of static allodynia",[1],10 mg/kg
same,time of peak antiallodynic actions,[1],2 h
"CC(C)C[C@H](CN)CC(=O)O [Pregabalin, (S)-(+)-4-amino-3-(2-methylpropyl)butanoic acid]",% reversal of allodynia,[3],100%
same,time of peak antiallodynic actions,[1],2 h
"CCCc1nn(C)c2c(=O)[nH]c(-c3cc(S(=O)(=O)N4CCN(C)CC4)ccc3OCC)nc12 [Sildenafil, 5-[2-ethoxy-5-(4-methyl-1-piperazinylsulphonyl)phenyl]-1-methyl-3-n-propyl-1,6-dihydro-7H-pyrazolo[4,3-d]pyrimidin-7-one]",blockade of dynamic allodynia,[2]; 30 mg/kg s.c. (MED),25%
same,"minimum effective dose (MED), blockade of maintenance of dynamic allodynia",[2],30 mg/kg
same,time of peak antiallodynic actions,[2],2 h
same,blockade of static allodynia,[1]; 30 mg/kg s.c.,~60%
same,% reversal of allodynia,"[1]; Table 1, ratio 0:1, sildenafil 30 mg/kg alone",50%
same,"minimum effective dose (MED), blockade of maintenance of static allodynia",[1],10 mg/kg
same,time of peak antiallodynic actions,[1],2 h
